Data published in the supplement of paper PMC10307832.

Key:
Experiment in all cases: relative viability (nuclei count vs DMSO), 5 days (fraction); higher = more cells survive
[1] = compound: C1CNCCC1C2=CC(=NN2)C3=CC=NC=C3 + N=C(N)NC(=N)NCCc1ccccc1 [Phenformin] (partner 250 µM)
How it was run: (§1)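 Relative viability equals treated-well nuclei counts divided by vehicle-well nuclei counts. Counts came from 4× images of lung cancer cell lines grown in 1536-well plates for 5 days after pin-tool dosing on the day after seeding. Dosing used one drug alone or a fixed anchor-drug dose plus five library-drug doses (not always all listed) in √10 steps, and values are medians of duplicate plates.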

[2] = compound: C[C@@H](N)c1ccc(C(=O)Nc2ccnc3[nH]ccc23)cc1 + C[C@@H](Oc1cc(-c2cnn(C3CCNCC3)c2)cnc1N)c1c(Cl)ccc(F)c1Cl [Crizotinib] (partner 1 µM)
How it was run: as §1

[3] = compound: O[C@H]1CC[C@H](Nc2ncc3nc(Nc4c(F)cc(F)cc4F)n([C@H]4CCOC4)c3n2)CC1 [Tanzisertib] + CS(=O)(=O)CCNCc1ccc(-c2ccc3ncnc(Nc4ccc(OCc5cccc(F)c5)c(Cl)c4)c3c2)o1 [Lapatinib] (partner 2 µM)
How it was run: as §1

[4] = compound: C[C@@H](N)c1ccc(C(=O)Nc2ccnc3[nH]ccc23)cc1 + CCNC(=O)c1noc(-c2cc(C(C)C)c(O)cc2O)c1-c1ccc(CN2CCOCC2)cc1 [Luminespib] (partner 0.01 µM)
How it was run: as §1

| Cell Line | relative viability ([1]; first compound 0.08 µM) | relative viability ([1]; first compound 0.8 µM) | relative viability ([1]; first compound 2.53 µM) | relative viability ([1]; first compound 8 µM) | relative viability ([2]; first compound 0.04 µM) | relative viability ([2]; first compound 0.1265 µM) | relative viability ([2]; first compound 0.4 µM) | relative viability ([2]; first compound 1.265 µM) | relative viability ([2]; first compound 4 µM) | relative viability ([3]; first compound 0.08 µM) | relative viability ([3]; first compound 0.253 µM) | relative viability ([3]; first compound 0.8 µM) | relative viability ([3]; first compound 2.53 µM) | relative viability ([3]; first compound 8 µM) | relative viability ([4]; first compound 0.04 µM) | relative viability ([4]; first compound 0.1265 µM) | relative viability ([4]; first compound 0.4 µM) | relative viability ([4]; first compound 1.265 µM) | relative viability ([4]; first compound 4 µM) |
| --- | --- | --- | --- | --- | --- | --- | --- | --- | --- | --- | --- | --- | --- | --- | --- | --- | --- | --- | --- |
| NCI-H460 | 0.335 | 0.72 | 0.564 | 0.51 | 1.1 | 0.943 | 0.966 | 0.516 | 0.603 | 0.968 | 0.959 | 0.949 | 0.952 | 1.05 | 0.04 | 0.0445 | 0.0267 | 0.0276 | 0.0227 |
| NCI-H520 | 0.439 | 0.309 | 0.758 | 0.908 | 0.824 | 0.852 | 0.801 | 1.05 | 0.804 | 0.834 | 0.804 | 0.827 | 0.789 | 0.819 | 0.192 | 0.188 | 0.24 | 0.218 | 0.213 |
| NCI-H596 | 0.657 | 0.841 | 0.927 | 0.86 | 1.04 | 0.899 | 0.934 | 0.809 | 0.93 | 1.18 | 1.15 | 1.04 | 1.09 | 0.985 | 1.33 | 0.912 | 0.98 | – | 0.975 |
| NCI-H647 | 0.44 | 0.487 | 0.52 | 0.533 | 1.09 | 0.98 | 1.02 | 0.882 | 0.692 | 1.28 | 1.23 | 1.01 | 1.31 | 0.917 | 0.133 | 0.228 | 0.139 | 0.14 | 0.0908 |
| NCI-H650 | 0.5 | 0.451 | 0.473 | 0.46 | 0.66 | 0.639 | 0.745 | – | 0.587 | 0.963 | 1.14 | 1.02 | 1.06 | 0.295 | – | 0.928 | 0.844 | 0.718 | 0.635 |
| NCI-H661 | 0.277 | 0.263 | 0.273 | 0.273 | 0.906 | 0.929 | 1.18 | 1.02 | 0.89 | 0.596 | 0.431 | 0.505 | 0.511 | 0.449 | 0.921 | 0.923 | 0.873 | 0.781 | 0.811 |
| NCI-H727 | 0.529 | 0.468 | 0.619 | 0.631 | 1.04 | 1 | 1.21 | 1.19 | 0.842 | 0.934 | 0.872 | 0.952 | 0.988 | 0.842 | 0.341 | 0.516 | 0.425 | 0.285 | 0.363 |
| NCI-H838 | 0.605 | 0.546 | 0.577 | 0.563 | 0.835 | 0.778 | 0.638 | 0.431 | 0.316 | 1.22 | 0.993 | 1.04 | 0.998 | 0.958 | 0.355 | 0.315 | 0.32 | 0.282 | 0.222 |
| NCI-H1355 | 0.482 | 0.463 | 0.49 | 0.456 | 1.04 | 1.09 | 1.19 | – | 0.941 | 1.02 | 1.03 | 1.05 | 1.06 | 1.05 | 0.759 | 0.72 | 0.807 | 0.66 | 0.625 |
| NCI-H1437 | 0.34 | 0.313 | 0.298 | 0.299 | 0.915 | 0.851 | 0.943 | 1.01 | 0.792 | 0.831 | 0.859 | 0.787 | 0.824 | 0.778 | 1.1 | 1.05 | 1.21 | 1.13 | 0.907 |
| NCI-H1563 | 0.619 | 0.642 | 0.679 | 0.673 | 0.981 | 0.794 | 0.753 | 0.883 | 0.934 | 0.973 | 0.947 | 0.967 | 1.06 | 1.01 | 0.514 | 0.484 | 0.499 | 0.508 | 0.514 |
| NCI-H1650 | 0.287 | 0.442 | 0.428 | 0.356 | 1.04 | 1.12 | 1.04 | 0.911 | 0.763 | 0.958 | 0.759 | 0.838 | 0.842 | 0.331 | 0.2 | 0.191 | 0.177 | 0.17 | 0.195 |
| NCI-H1651 | 0.351 | 0.3 | 0.333 | 0.344 | 0.921 | 0.822 | 0.916 | 0.898 | 0.837 | 0.898 | 1.03 | 0.797 | 0.782 | 0.864 | 0.806 | 0.734 | 1.1 | 1.02 | 0.826 |
| NCI-H1666 | 0.571 | 0.587 | 0.561 | 0.553 | 1.12 | 0.967 | 1.22 | 1.16 | 1.33 | 0.669 | 0.67 | 0.901 | 0.622 | 0.725 | 1.02 | 1.03 | 1.13 | 1.4 | 1.16 |
| NCI-H1734 | 0.348 | 0.421 | 0.36 | 0.401 | 0.669 | 0.719 | 0.653 | – | 0.575 | 1.15 | 1.13 | 0.952 | 1.16 | 1.08 | 0.2 | 0.209 | 0.193 | 0.187 | 0.195 |
| NCI-H1755 | 0.631 | – | 0.688 | 0.553 | 0.808 | 0.822 | 0.813 | 0.795 | 0.608 | 1.06 | 0.98 | 0.995 | 1.07 | 0.968 | 0.384 | 0.426 | 0.69 | 0.397 | 0.26 |
| NCI-H1792 | 0.231 | 0.237 | 0.38 | 0.227 | 0.964 | 0.976 | 1.08 | 0.916 | 0.854 | 1.01 | 0.967 | 0.867 | 0.825 | 0.798 | 0.407 | – | 0.568 | 0.45 | 0.448 |
